Results on two substances are retold here after patent US8741843B2, “Compositions and methods for inducing angiogenesis” (priority 2006, dated 2014).

The subject of assay [1] is endothelial cells. The assay can be described thus: CoCl2-induced apoptosis of endothelial cells (Annexin-FITC/PI FACS). The following applies: normoxia, 100 micromolar per 100,000 cells CoCl2, 10 ng/ml peptide 24 hours. In kind it is cell-based, human. The method, then: FIGS. 33a-f are representative FACS analyses depicting a specific inhibition of hypoxia-induced apoptosis of endothelial cells by ADOPep1. Endothelial cells in Petri dishes were incubated for 24 hours with 5% FCS in supplement-free endothelial cell growth medium under normoxia (FIGS. 33a and d), exposed to 24 hours hypoxia (Figures c and f) or incubated under normoxia with 100 micromolar per 100,000 cells CoCl2 (FIGS. 33b and e), in the absence (FIGS. 33a-c) or presence (FIGS. 33d-f) of 10 ng/ml Adopep1 peptide (for 24 hours). Cells were trypsinized and immediately re-suspended in PBS with 5% FCS and 0.1% Na-azide. Samples containing 100,000 cells were tested for apoptosis using the Annexin-FITC (X axis) and propidium iodide (Y axis) kit (Bender Medsystems, Vienna, Austria), according to manufacturer's instructions. Results were analyzed by FACScan (Beckton Dickinson).
FIG. 34 is a histogram depicting the FACS results of the experiments described in FIGS. 33a-f. Data represents average±SD of 2 experiments.

Assay [2] has as its system ERK½. The assay can be described thus: ERK½ phosphorylation in endothelial cells under hypoxia (Western blot, densitometry). In kind it is cell-based, human. To be noted: for percent adjusted volume of pERK band: FIG. 31, cord 1, 10 ng/ml; for ERK½ phosphorylation (in words): endothelial cells under hypoxia; for ERK½ phosphorylation (in words) / incubation time of maximal ERK phosphorylation (densitometry, data not shown): 10 ng/ml; for incubation time of maximal ERK phosphorylation (densitometry, data not shown): hypoxia. The method, then:
FIGS. 30a-b are Western blot analyses depicting induction of phosphorylation of ERK by ADoPep1 and Motif A. Endothelial cells under starvation conditions and 5 hours hypoxia were incubated for 5 (lanes 2 and 6), 20 (lanes 3 and 7), 30 (lanes 4 and 8) and 60 (lanes 5 and 9) minutes with 10 ng/ml ADoPep1 (Lanes 2-5) or Motif A (lanes 6-9) peptides or remained under hypoxia without a further incubation with a peptide (lane 1). After incubation, lysates were prepared, subject to SDS-PAGE and blotting on a nitrocellulose membrane. Western Blot analysis was performed using anti-Phospho ERK½ antibody. […] FIG. 30a—Experiment 1; FIG. 30b—Experiment 2. The percent adjusted volume as determined by a densitometric analysis software to compare net band densities was as follows: FIG. 30a, lane 1-4.5, lane 2-9.3, lane 3-13.7, lane 4-13.3, lane 5-11.2, lane 6-10.7, lane 7-12.4, lane 8-12.3 and lane 9-12.4; FIG. 30b, lane 1-4.21, lane 2-12.4, lane 3-12.5, lane 4-14.8, lane 5-10.9, lane 6-14.9, lane 7-9.8, lane 8-12.7 and lane 9-7.8.
FIG. 31 is a Western blot analysis depicting the level of phosphorylated ERK (pERK) in endothelial cells activated for 20 minutes with ADOPep1 and motif A and inhibited by pERK-inhibitor peptide. Endothelial cells (from cord 1) under starvation conditions and 5 hours hypoxia were incubated with 10 ng/ml ADOPep1 (lanes 3 and 4) or motif A (lanes 1 and 2) peptides in the presence (lanes 2 and 4) or absence (lanes 1 and 3) of p-ERK-inhibitor peptide (Santa Cruz). For control, the endothelial cells under starvation conditions and 5 hours hypoxia (lane 5) were also incubated with the p-ERK-inhibitor peptide (lane 6). […] The percent adjusted volume as determined by a densitometric analysis software to compare net band densities was as follows: lane 1-19, lane 2-14, lane 3-14, lane 4-8.8, lane 5-11, lane 6-2.1.
FIGS. 32a-b are Western blot analyses depicting the effect of ADOPeps on the level of phosphorylated ERK. Endothelial cells (EC) from cord 1 (FIG. 32a) or cord 2 (FIG. 32b) under hypoxia (5 hours) were incubated for 20 or 30 minutes with 10 ng/ml of AdoPep1, AdoPep2 and AdoPep3 or remained untreated (i.e., under hypoxia without any peptide). Western Blot analyses of samples cell lysates were performed with anti Phospho ERK antibody on nitrocellulose membranes. […] The percent adjusted volume as determined by a densitometric analysis software to compare net band densities was as follows: FIG. 32a, lane 1-11, lane 2-13, lane 3-11, lane 4-5, lane 5-11, lane 6-13, lane 7-17, lane 8-16.7; FIG. 32b, lane 1-17, lane 2-22, lane 3-19, lane 4-7, lane 5-8, lane 6-13, lane 7-14, lane 8-1.

In assay [3] the test system is endothelial cells (HUVEC). Briefly: Binding of biotinylated ADOPep to endothelial cells by FACS. Also noted: species or system human. The protocol:
FIG. 3 is a FACS analysis depicting the binding (in percentages) of biotinylated ADOPep1 (ADOPep1^Biot), an ADAM15 derived peptide (SEQ ID NO:2), to endothelial cells (EC) under normoxia. Biotinylated ADOPep1 at 0.05, 0.5 and 5 microgram/ml (μg/ml) were added to endothelial cells.
FIG. 4 is a FACS analysis depicting the binding (in total counts) of Biotinylated ADOPep1 to endothelial cells under normoxia and hypoxia conditions. […] X axis—Intensity of binding.
Human umbilical endothelial cells (HUVEC) were harvested by trypsin and 100,000 cells per sample were suspended in PBS+5% FCS+0.1% Na azide. Endothelial cells were either exposed for 5 hours to hypoxia or remained under normoxia conditions. Cells were stained for 2 hours on ice in dark with 0.05, 0.5, 5 μg/100,000 cells biotinylated ADOPeps. The cells were then washed twice with PBS, following which the cells were stained for 30 minutes with FITC-labeled Streptavidin (Jackson ImmunoResearch Laboratories, PA, USA). After washing, samples were analyzed using a fluorescence activated cell sorter (FACScan Beckton Dickinson, Calif., USA).
(A flow cytometer gives signals particle by particle.)

The mark [4] stands for this setting: FIG. 30a experiment 1, 10 ng/ml, 5 minutes, hypoxia alone 4.5.
Where [5] appears, read: FIG. 30a experiment 1, 10 ng/ml, 20 minutes, hypoxia alone 4.5.
[6] abbreviates: FIG. 30a experiment 1, 10 ng/ml, 30 minutes, hypoxia alone 4.5.
The mark [7] stands for this setting: FIG. 30a experiment 1, 10 ng/ml, 60 minutes, hypoxia alone 4.5.
[8] abbreviates: FIG. 30b experiment 2, 10 ng/ml, 5 minutes, hypoxia alone 4.21.
Setting [9] is: FIG. 30b experiment 2, 10 ng/ml, 20 minutes, hypoxia alone 4.21.
[10] abbreviates: FIG. 30b experiment 2, 10 ng/ml, 30 minutes, hypoxia alone 4.21.
Setting [11] is: FIG. 30b experiment 2, 10 ng/ml, 60 minutes, hypoxia alone 4.21.
Where [12] appears, read: 20 minutes, absence of p-ERK-inhibitor peptide, hypoxia alone 11.
Setting [13] is: 20 minutes, presence of p-ERK-inhibitor peptide.

Entries after “also recorded” stand apart in the source; their conditions may differ.

In the case of “HWRRAHLLPRLP [ADOPep1, ADAM15 derived peptide, amino acids 286-297 of the metalloprotease domain]”, the figures for the “effect on CoCl2 induced apoptosis” value in assay [1] and in assay [1] (listed as AdoPep1) were “no effect on apoptosis induced by CoCl2; also recorded: not the CoCl2 induced apoptosis” and “did not inhibit apoptosis of endothelial cells exposed to the apoptotic inducer Cobalt-Chloride”, respectively. The “percent adjusted volume of phospho ERK½ band” value in assay [2] (setting [4]) was found to be 9.3%; in assay [2] (setting [5]) it was 13.7%; in assay [2] (setting [6]), 13.3%; in assay [2] (setting [7]), 11.2%; in assay [2] (setting [8]), 12.4%; in assay [2] (setting [9]), 12.5%. In addition, the “percent adjusted volume of phospho ERK½ band” value is reported as 14.8% in assay [2] (setting [10]) and 10.9% in assay [2] (setting [11]). Also, the “percent adjusted volume of pERK band” value in assay [2] (setting [12]) came out at 14%; in assay [2] (setting [13]), 8.8%. In addition, the “percent adjusted volume of phospho ERK band” value in assay [2] (FIG. 32a cord 1, 10 ng/ml, 20 minutes, untreated 11, 13) came out at 17%; in assay [2] (FIG. 32a cord 1, 10 ng/ml, 30 minutes, untreated 11, 13), 16.7%; in assay [2] (FIG. 32b cord 2, 10 ng/ml, 20 minutes, untreated 17) it was 22%; in assay [2] (FIG. 32b cord 2, 10 ng/ml, 30 minutes, untreated 8) it was 13%. For the same substance, the “ERK½ phosphorylation (in words)” value in assay [2] was “significant increase in ERK½ phosphorylation; also recorded: induced ERK½ phosphorylation”; in assay [2] (listed as ADoPep1) it was “induction of ERK½ phosphorylation”. Moreover, the “incubation time of maximal ERK phosphorylation (densitometry, data not shown)” value in assay [2] was determined as 20 min. Further, the “binding to endothelial cells under hypoxia versus normoxia” value in assay [3] (5 micrograms per 100,000 cells) is recorded as “increase in binding; also recorded: increased under hypoxia”. The “percent binding of biotinylated ADOPep1 to endothelial cells” value in assay [3] (hypoxia 5 hours, 5 μg/ml) is recorded as “about 85%”; in assay [3] (normoxia, maximal at 5 μg/ml), “about 62%”.
Take “HWRRP [Motif A, 5 amino acid motif peptide]”: the “percent adjusted volume of phospho ERK½ band” value in assay [2] (setting [4]) was determined as 10.7%; in assay [2] (setting [5]), 12.4%; in assay [2] (setting [6]), 12.3%; in assay [2] (setting [7]), 12.4%; in assay [2] (setting [8]), 14.9%; in assay [2] (setting [9]), 9.8%. The results for the “percent adjusted volume of phospho ERK½ band” value in assay [2] (setting [10]) and in assay [2] (setting [11]) were 12.7% and 7.8%, respectively. Further, the “percent adjusted volume of pERK band” value in assay [2] (setting [12]) was found to be 19%; in assay [2] (setting [13]), 14%. Also, the “ERK½ phosphorylation (in words)” value in assay [2] is listed as “significant increase in ERK½ phosphorylation; also recorded: induction of ERK½ phosphorylation”. In assay [2], the “incubation time of maximal ERK phosphorylation (densitometry, data not shown)” value is 20 to 60 min.
